From patent publication US10059663B2, “Aromatic compound and use thereof” (Kyoto Pharmaceutical Industries, Ltd., priority 2013, dated 2018)

Assays:
[1] = system: Mouse bone marrow-derived mesenchymal cell line ST2 cells; assay: Osteoblast differentiation test (alkaline phosphatase activity); type: cell-based; conditions: ST-2, 96 h, at 0.1 μg/mL, 4 days of culture, absorbance at 405 nm, DMSO control = 100%, read-out: alkaline phosphatase activity (increase rate in absorbance, control as 100%)
Procedure: Mouse bone marrow-derived mesenchymal cell line ST2 cells (source of supply: RIKEN) were seeded in α-MEM medium containing 10% fetal bovine serum (source of supply: GIBCO BRL Cat. No. 12000-022) in a 96 well plate at a cell density of 4×10^3 cells/0.1 mL/well, and cultured for 24 hr under the conditions of 37° C., 5% CO2. Then, each test compound was added at a final concentration of 0.001-10 μM, and the final concentration 0.1% (v/v) of DMSO was added to the control. After 4 days of culture, alkaline phosphatase (ALP) activity was measured by the following method.
The medium in the cultured 96 well plate was removed, the cells were washed with PBS buffer (KCl 0.2 g/L, KH2PO4 0.2 g/L, Na2HPO4.12H2O 2.9 g/L, NaCl 8 g/L) (100 μL/well), cell lysate (10 mM MgCl2, 2% (v/v) Triton X-100) (50 μL/well) was added, and the mixture was stirred at room temperature for 3 min. A substrate solution (50 mM diethanolamine (Wako Pure Chemical Industries, Ltd. Cat. No. 099-03112), 20 mM […] (Nacalai Tesque Cat. No. 25019-81)) (50 μL/well) was added, and the mixture was left standing at room temperature for 9 min. 1N NaOH 50 μL/well was added to discontinue the reaction, and the absorbance at 405 nm was measured by a microplate reader (Dainippon Pharmaceutical Co., Ltd.)
An increase rate (%) in the absorbance by the test compound was calculated based on the absorbance of the control as 100%, and the differentiation degree of the osteoblast was evaluated.

female F344 rats = assay: Influence on bone density (ovariectomy, femur, DXA); type: in vivo, rat; conditions: at not more than 10 mg/kg; orally once per day, 6 or 7 days per week, 8 weeks; ovariectomized 12-week-old female F344 rats; femur by DXA
Excerpt: 12-week-old female F344 rats (SLC) underwent ovariectomy or sham surgery under anesthesia. The test compound was suspended in 0.5% methylcellulose solution (Wako Pure Chemical Industries, Ltd. Cat. No. 133-14255) and orally administered once per day, 6 or 7 days per week, from two days after the surgery. A 0.5% methylcellulose solution was orally administered to a control group. At 8 weeks from the administration, they were euthanized by drawing the whole blood from the abdominal artery under anesthesia, and the left and right femurs were excised.
The soft tissues were removed from the excised femurs, and the bone density was measured by DXA device DCS-600R (Aloka Co., Ltd.). The bone density was evaluated for the whole femur as well as the whole divided into three equal portions of proximal end, diaphysis and distal end portion.

| SMILES | activity at 0.1 µg/mL [1] | bone density (female F344 rats) |
| --- | --- | --- |
| COc1cc(Nc2ccc(N3CC(OCCO)C3)cc2)c(NC(C)=O)cn1 [Example 1, N-(4-{4-[3-(2-hydroxyethoxy)azetidin-1-yl]phenylamino}-6-methoxypyridin-3-yl)acetamide] | ≥ 200% | significantly increased |
| CC(=O)c1ccc(C(N)=O)cc1Oc1ccc(OCCOC2CCOCC2)cc1 [Example 32, 4-acetyl-3-{4-[2-(tetrahydropyran-4-yloxy)ethoxy]phenoxy}benzamide] | ≥ 200% | significantly increased |
| CC(O)c1ccc(C(N)=O)cc1Oc1ccc(OCCOC2CCOCC2)cc1 (stereo not drawn) [Example 38, 4-(1-hydroxyethyl)-3-{4-[2-(tetrahydropyran-4-yloxy)ethoxy]phenoxy}benzamide] | ≥ 200% | significantly increased |
| C[C@@H](O)c1ccc(C(N)=O)cc1Oc1ccc(OCCOC2CCOCC2)cc1 [Example 43, (R)-4-(1-hydroxyethyl)-3-{4-[2-(tetrahydropyran-4-yloxy)ethoxy]phenoxy}benzamide] | ≥ 200% | significantly increased |
| CC(=O)c1ccc(C(N)=O)cc1Oc1ccc(OCCOC2CCOC2)cc1 (stereo not drawn) [Example 67] | ≥ 200% | significantly increased |
| C[C@@H](O)c1ccc(C(N)=O)cc1Oc1ccc(OCCOC2CCOC2)cc1 (stereo partly drawn) [Example 77] | ≥ 200% | significantly increased |
| CC(=O)c1ccc(C(N)=O)cc1Oc1ccc(N2CC(CO)C2)cc1 [Example 95] | ≥ 200% | – |
| CC(=O)c1ccc(C(N)=O)cc1Oc1ccc(N2CC(O)C2)cc1 [Example 96] | ≥ 200% | – |
| CC(=O)c1ccc(C(N)=O)cc1Oc1ccc(N2CCC2)cc1 [Example 97] | ≥ 200% | – |
